From patent publication US20220304957A1, “ANTI-CANCER COMPOSITIONS AND METHODS OF USE” (Board of Supervisors of Louisiana State University and …, priority 2019, published 2022)

Assays:
Water solubility (HPLC) = type: physicochemical; settings: room temperature, sonicated one hour
Procedure: Aliquots of 50 μM PP1 and FF in DMSO were added to 500 μl to heparinized human blood to a final concentration of 50 μM. Following incubation at 37° C. for the indicated time points, the samples were frozen at −80° C., and later prepared for HPLC-based detection of the compounds. Please note that FF is converted to FA in the presence of human blood. […] Data represent average values with standard deviation (n=3). panel B: Water solubility. FF and PP1, were added to water to a final concentration of 50 mM and sonicated in an ultrasonic bath (Branson 1510 Digital Heated Ultrasonic bath) for one hour at room temperature. The samples were then centrifuged for 10 minutes at 16000×g, and the supernatant filtered through 0.45 μm syringe filter. Water solubilized PP1 and FF were subsequently processed for HPLC analysis (see Methods). Data represent average values with standard deviation (n=3). panel C: Effects of PP compounds on PPAR responsive elements (PPRE). The PPAR transcriptional activity was determined in HepG2 cells by the JsTkpGL3 reporter plasmid, which contains a firefly luciferase gene driven by the PPRE, which consists of three copies of the J site from the apo-AII gene promoter. […] The luciferase activity was detected with Dual-Luciferase reporter assay system (Promega, Madison, Wis.), and the resulting luminescence measured with Synergy 2 microplate reader (BioTek, Winooski, Vt.). […]

[1] = PP1 tissue distribution after oral administration (HPLC); type: in vivo, C57BL/6 mice
Procedure: Panel A: PP1 accumulation in different tissues following oral administration of PP1 (25 mg/kg). C57BL/6 mice were treated daily for 14 days, and the levels of PP1 in the blood, liver, spleen, kidney, heart, brain and in brain tumors, were evaluated by HPLC, as previously described. Data represent average values with standard deviation (n=3). Panel B: Body weight of C57BL/6 mice treated with PP1. Mice were treated with the PP1 at doses ranging from 25 to 75 mg/kg/day administered by oral gavage. Following 7 and 14 days of daily drug administration both control (DMSO-treated) and experimental (PP1-treated) mice were weighted. Data represent average values with standard deviation (at least three mice per group were included). In Panels A and B, tumor free and tumor bearing mice were included for the body weight measurement. Panels C, D and E: Intracranial growth of GL-261-Luc cells. C57 black mice, 6-8 weeks of age were anesthetized with 4% isoflurane and secured in a stereotaxic head frame (Harvard Apparatus, Holliston Mass.). GL-261-luc cells (1×10^5 cells in 2 μl; PerkinElmer Inc.) were injected into the brain parenchyma (coordinates: 3 mm anterior to Bregma; 1.5 mm lateral to Sagital suture; 3 mm down from surface) through a burr hole in the skull using a 10 μl Hamilton syringe. Panel C: Mice with large intracranial tumors were selected using bioluminescence imaging with Xenogen IVIS 200 system. Tumor size is expressed as radiance (photons/s/cm2/sr) and was quantified with the Living Image 4.1 software according to the manufacturer's recommendations (Xenogen). Panels D and E: Pathological evaluation of intracranial tumors and tissues. Following 14 days of drug administration (control: DMSO administered daily by oral gavage; PP1 50 mg/kg administered daily by oral gavage) the animals were euthanized, and the following organs were collected: liver, kidneys, spleen, heart, intact brain and intracranial tumors. The tissues were formalin-fixed, paraffin-embedded, and the resulting thin section were stained with hematoxylin and eosin (H&E) for a routine pathological evaluation.
Detection of PP compounds by high performance liquid chromatography (HPLC) —All HPLC data were obtained from the Agilent 1100 apparatus equipped with a line degasser, binary pump (high pressure mixer), autosampler, column thermostat and Diode Array Detector (DAD) (Agilent Technologies, Santa Clara, Calif.). The analytical column 3 μm, 4.6×150 mm (Octyl Silane C8; YMC America, Inc.), solvent A—50 mM acetic acid in water, and solvent B—acetonitrile, with isocratic flow were used to detect and quantify PP compounds in culture media, in cells, tissues and body fluids. The flow rate was set to 1 ml/min, column temperature was 20° C., and the sample volume was 5 μl. DAD wavelength was set to 285 nm. Sample preparation. Blood, cell culture media, cellular and tissue lysates, were deproteinized by adding 150 μl of acetonitrile to 150 μl of sample, mixed well and centrifuged (15 000 g, 5 min). The lysates were sonicated on ice and centrifuged (15 000 g, 5 min). Finally, 150 μl of the supernatant was mixed with the equal volume of acetonitrile, filtered through 0.22 μm centrifuge filter (Sigma) and analyzed by High Performance Liquid Chromatography (HPLC).
Animal studies—All described procedures involving experimental animals were performed in accordance to the IACUC protocol #3444 at LSUHSC, New Orleans. C57BL/6NHsd mice, 11-12 weeks of age (Envigo), were anesthetized with 4% isoflurane and secured in a stereotaxic head frame (Harvard Apparatus, Holliston Mass.). GL-261-luc cells (1×105) (PerkinElmer Inc.) were suspended in PBS and 2 μl aliquots were injected into the brain parenchyma (coordinates: 3 mm anterior to Bregma; 1.5 mm lateral to Sagital suture; 3 mm down from surface) through a burr hole in the skull using a 10 μl Hamilton syringe. […]

## CN(CCO)C(=O)C(C)(C)Oc1ccc(C(=O)c2ccc(Cl)cc2)cc1 [PP1, 2-[4-(4-chlorobenzoyl)phenoxy]-N-(2-hydroxyethyl)-N,2-dimethylpropanamide]
Water solubility (HPLC)
  water solubility in comparison to FF: much better soluble in water
[1]; C57BL/6, mouse, brain tumor tissue, po, 25 mg/kg, orally administered, mice, read-out: HPLC-measured concentration in the brain tumor tissues
  concentration at 14 days: 5 to 6 µM
[1]; oral gavage daily, 14 days
  accumulation in the liver: 10.3 ± 4.3 µM
  concentration in intracranial tumors: 5.8 ± 0.7 µM
  level in intact brains: 4.9 ± 3.4 µM
  level in the blood: 3.05 ± 0.2 µM
  level in the heart: 6.1 ± 2.4 µM
  level in the spleen: 7.6 ± 3.2 µM
[1]; oral gavage daily, 14 days, in µM
  accumulation in the kidney: 8.8+/−4.7
